Common to all, as to format: in vivo
The test system of assay [1] is male CD-1 ICR mice. The assay can be described thus: Locomotor activity test. The note with it: DZP 2 mg/kg, i.p., 60 min. From the text:
The spontaneous activity video analysis system consists of 8 sound-attenuated chambers (40 cm × 40 cm × 65 cm) with a built-in infrared camera. (JL Behave, Shanghai Ji-Liang Software Technology Co., Ltd). During the behavioral tests, the experimenter was outside the testing room, and the chambers were cleaned between successive runs. Forty male CD-1 ICR mice were allowed to acclimate for three days in home cages and were handled for another three days to minimize stress after arrival in the animal facility. On the following day, after habituation to the activity chambers for 60 min, mice were administered vehicle, diazepam (DZP, 2 mg/kg, i.p.) or l–THBr (1, 5, or 10 mg/kg, i.p.) and immediately placed into the test chambers to record their locomotor activity for 60 min.

Assay [2] deals with male CD-1 ICR mice. The assay can be described thus: Light-dark box test. The note with it: DZP 2 mg/kg, 30 min before test, P < 0.05 vs vehicle. From the text: The light-dark box test is a sensitive model to detect activity in disorders related to anxiety, based on the innate aversion of rodents to brightly lit areas and on their spontaneous exploratory behavior in response to a novel environment. The light-dark transition box is a polypropylene animal cage (44 cm × 21 cm × 21 cm), which is divided into two compartments, a light box (illuminated by a 60 W light source with 1000 lx light intensity) and a dark box. Forty-eight male CD-1 ICR mice were placed in the light box 30 min after l–THBr or DZP injection and allowed to move freely to both boxes for 5 min. The number of transitions between the two boxes were recorded by a video camera.

In assay [3] the test system is male CD-1 ICR mice. The assay can be described thus: Elevated plus-maze test. The note with it: DZP 2 mg/kg, i.p., P < 0.05 vs control. The text has this: The elevated plus-maze test is widely used for the screening and evaluation of anxiolytic drugs. The apparatus consists of two open arms (30 cm × 5 cm) and two enclosed arms (30 cm × 5 cm × 15 cm), which is elevated 45 cm above the ground. The entire maze was made of clear Plexiglas and illuminated by four 30 W white lights with 300 lx light intensity arranged as a cross 100 cm above the maze. 48 male CD-1 ICR mice were randomly divided into either the vehicle group, one of three doses of l–THBr groups, or the diazepam group. 30 min after injection, mice were gently placed on the center platform facing an open arm, and the number of entries and the time spent in both arms were recorded by a video camera for 5 min. The results were expressed as the percentage of entries into the open arms (%) = (the number of entries into the open arms / the total number of entries into the four arms) × 100%; and the percentage of time spent in the open arms (%) = (time spent in the open arms / total time spent in the four arms) × 100%.
In a separate experiment, WAY100635 (a 5-HT1A antagonist) was used to test whether the anxiolytic-like activity of l-THBr is mediated by the activation of the 5-HT1A receptor. Forty male CD-1 ICR mice were randomly divided into one of four groups: vehicle, WAY100635 (3 mg/kg, i.p.), l–THBr (5 mg/kg, i.p.) or WAY100635 (3 mg/kg, i.p.) + l–THBr (5 mg/kg, i.p.). Mice were administered vehicle or WAY100635 followed by vehicle or l–THBr (5 mg/kg) injections 15 min later. The test was performed 30 min after the administration of l-THBr or vehicle.

In the case of `CN1C(=O)CN=C(c2ccccc2)c2cc(Cl)ccc21` [Diazepam, reference compound], the “influence on locomotor activity (travel distance)” value in the assay with male CD-1 ICR mice [1] was “no influence”. Besides, in the assay with male CD-1 ICR mice [2], the “number of transitions between the light/dark sides” value was “increased”. Besides, in the assay with male CD-1 ICR mice [3], the “percentage of entries into the open arms” value was “significant increase” and the “percentage of time spent in the open arms” value is “significant increase”.

The values above are taken from article PMC5234788 (PLoS ONE, 2017).
